# From publication PMC9781087, “Discovery of New Microbial Collagenase Inhibitors” (Life, 2022)
# Read-outs that look alike come from different tables or passages of the source.
# Target: collagenase A (ColA) (Clostridium perfringens, UniProt P43153)
# Assay: biochemical
# Design: species or system C. perfringens
# Conditions: for Inhibition (%) on ColA: after 30 min of incubation
# [1] = read-out: Inhibition (%) on ColA
# [2] = read-out: Inhibition(%) on ColA
# [3] = 100 µM, preliminary screening (Table S1), * = compound precipitated due to low solubility
# [4] = 5 µM, mean ± SD of three replications
# Chain of collagenase A (ColA) (P43153 87-1104 limits assumed): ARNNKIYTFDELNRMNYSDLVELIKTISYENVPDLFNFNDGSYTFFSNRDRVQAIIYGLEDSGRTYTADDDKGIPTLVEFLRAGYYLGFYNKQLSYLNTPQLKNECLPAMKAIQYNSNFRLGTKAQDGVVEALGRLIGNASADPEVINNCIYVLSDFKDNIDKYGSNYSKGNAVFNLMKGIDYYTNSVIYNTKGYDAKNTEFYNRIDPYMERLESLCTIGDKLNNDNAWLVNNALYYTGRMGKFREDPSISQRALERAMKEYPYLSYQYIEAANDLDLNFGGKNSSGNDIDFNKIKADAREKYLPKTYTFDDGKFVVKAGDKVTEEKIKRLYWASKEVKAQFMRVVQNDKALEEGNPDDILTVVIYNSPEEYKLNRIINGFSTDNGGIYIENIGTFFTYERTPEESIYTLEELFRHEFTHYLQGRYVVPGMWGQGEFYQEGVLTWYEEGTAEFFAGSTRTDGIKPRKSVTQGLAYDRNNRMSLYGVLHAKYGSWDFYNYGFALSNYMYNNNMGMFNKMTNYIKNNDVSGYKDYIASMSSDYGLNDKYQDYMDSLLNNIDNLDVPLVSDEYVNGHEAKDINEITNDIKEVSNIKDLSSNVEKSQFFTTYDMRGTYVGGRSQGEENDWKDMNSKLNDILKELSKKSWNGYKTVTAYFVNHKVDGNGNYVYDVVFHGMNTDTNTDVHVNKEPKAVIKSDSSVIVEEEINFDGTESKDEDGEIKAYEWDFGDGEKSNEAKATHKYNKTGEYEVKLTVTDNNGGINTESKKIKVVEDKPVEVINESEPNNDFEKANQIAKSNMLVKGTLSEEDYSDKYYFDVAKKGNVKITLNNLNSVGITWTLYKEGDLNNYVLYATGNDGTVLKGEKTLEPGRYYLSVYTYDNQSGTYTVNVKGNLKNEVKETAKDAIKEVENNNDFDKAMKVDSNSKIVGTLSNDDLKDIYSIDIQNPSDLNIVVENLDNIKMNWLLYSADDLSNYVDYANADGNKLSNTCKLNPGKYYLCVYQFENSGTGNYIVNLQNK
compound,measurement,setting,value
"COc1ccc2[nH]c3c(c2c1)CCNC3C(=O)O (centres unmarked) [6-methoxy-1,2,3,4-tetrahydro-9H-pyrido [3,4-b]indole-1-carboxylic acid]",inhibition at 1 µM,[1],-19.9 ± 2.7%
same,inhibition at 5 µM,[1],-1.3 ± 2.1%
same,inhibition at 10 µM,[1],-5.2 ± 0.7%
same,inhibition at 50 µM,[1],2.8 ± 1.3%
same,inhibition at 100 µM,[1],19.6 ± 3.9%
same,inhibition at 100 µM,[2],18.8%
COc1ccc(-c2coc3cc(OC)ccc3c2=O)cc1 [daidzein dimethyl ether],Inhibition (%) on ColA,[3],15.7%
O=C(O)C=Cc1cccc(O)c1 [3-hydroxycinnamic acid],inhibition at 100 µM,[2],0.8%
"CC(O)(P(=O)(O)O)P(=O)(O)O [etidronic acid, reference compound]",inhibition at 100 µM,[2],23%
O=c1ccc2cc(O)ccc2o1 [6-hydroxycoumarin],inhibition at 100 µM,[2],12.5%
"O=C(O)[C@@H](S)[C@@H](S)C(=O)O [meso-2,3-dimercaptosuccinic acid, reference compound]",inhibition at 100 µM,[2],25.6%
CCOC(=O)[C@H](CCCNC(=N)N)NC(=O)c1ccccc1.Cl [benzoyl-L-arginine ethyl ester hydrochloride],Inhibition (%) on ColA,[3],-6.6%
COc1ccc2cc3[n+](cc2c1OC)CCc1cc2c(cc1-3)OCO2 [berberine],inhibition at 100 µM,[2],-2.5%
C[C@@]12C(=O)OC(=O)[C@]1(C)[C@H]1CC[C@@H]2O1 [cantharidin],inhibition at 100 µM,[2],26.8%
"COc1ccc(-c2oc3ccccc3c(=O)c2O)cc1 [4'-methoxyflavonol, 4′-methoxyflavonol]",inhibition at 100 µM,[2],3.7%
O=C1c2c(O)cccc2C([C@@H]2O[C@H](CO)[C@@H](O)[C@H](O)[C@H]2O)c2cc(CO)cc(O)c21 (some centres unmarked) [aloin],inhibition at 100 µM,[2],4.4%
"CC(=O)NCCCS(=O)(=O)O [acamprosate calcium, reference compound]",inhibition at 100 µM,[2],17.2%
N[C@@H](CS)C(=O)O [cysteine],inhibition at 100 µM,[2],1.7%
"C/C(=C(\CCOP(=O)(O)O)SC(=O)c1ccccc1)N(C=O)Cc1cnc(C)nc1N [benfotiamine, reference compound]",inhibition at 100 µM,[2],-20.4%
"CC1CNc2c(cccc2S(=O)(=O)N[C@@H](CCCNC(=N)N)C(=O)N2CC[C@@H](C)C[C@@H]2C(=O)O)C1 (some centres unmarked) [argatroban, reference compound]",inhibition at 100 µM,[2],-12.3%
"COc1cc(CNC(=O)CCCC/C=C/C(C)C)ccc1O [Capsaicin, capsaicin, reference compound]",IC50 (in words),,nanomolar range
same,Inhibition (%) on ColA,"1 µM, mean ± SD of three replications, 1 µM",94.8 ± 0.8%
same,Inhibition (%) on ColA,"1 µM, mean ± SD of three replications, listed as capsaicin, 1 µM",Almost complete inhibition
same,Inhibition (%) on ColA,[4],100.5 ± 0.8%
same,Inhibition (%) on ColA,[3],87.9%
"C[C@@H]1CC[C@H]2[C@@H](C)C(=O)O[C@@H]3O[C@@]4(C)CC[C@@H]1[C@]32OO4 [artemisinin, reference compound]",inhibition at 100 µM,[2],5.6%
"Oc1cc(O)nc(S)n1 [4,6-dihydroxy-2-mercaptopyrimidine]",inhibition at 100 µM,[2],-7.2%
O=C1C=C(O)C(=O)c2ccccc21 [lawsone],inhibition at 100 µM,[2],-6.1%
C[C@H](N)C(=O)O [L-alanine],inhibition at 100 µM,[2],3.1%
"O=S(=O)(O)CCS [sodium 2-mercaptoethanesulfonate, reference compound]",inhibition at 100 µM,[2],20.6%
"O=C(O)[C@H]1/C(=C/CO)O[C@@H]2CC(=O)N21 [potassium clavulanate, reference compound]",inhibition at 100 µM,[2],-8.1%
O=c1ccc2ccc(O)cc2o1 [umbelliferone],inhibition at 100 µM,[2],-10.2%
"O=c1c(O)c(-c2cc(O)c(O)c(O)c2)oc2cc(O)cc(O)c12 [Myricetin, myricetin]",inhibitory effect on ColA (in words),,low inhibitory effect
same,inhibition at 1 µM,[1],-15.4 ± 2.7%
same,inhibition at 5 µM,[1],-4.5 ± 1.1%
same,inhibition at 10 µM,[1],-1 ± 1.1%
same,inhibition at 50 µM,[1],13.6 ± 0.6%
same,inhibition at 100 µM,[1],23.2 ± 2%
same,inhibition at 100 µM,[2],27.6%
"CC(=O)c1ccc(S(=O)(=O)NC(=O)NC2CCCCC2)cc1 [acetohexamide, reference compound]",inhibition at 100 µM,[2],16.6%
COc1cc(-c2oc3cc(O)cc(O)c3c(=O)c2O)ccc1O [isorhamnetin],inhibition at 100 µM,[2],19.9%
"C[C@]1(Cn2ccnn2)[C@H](C(=O)O)N2C(=O)C[C@H]2S1(=O)=O [tazobactam, reference compound]",inhibition at 100 µM,[2],18.7%
"O=c1c(O)c(-c2ccccc2)oc2ccccc12 [3-Hydroxyflavone, 3-hydroxyflavone]",inhibitory effect on ColA (in words),,low impact on the enzyme activity
same,inhibition at 1 µM,[1],-13.4 ± 2.7%
same,inhibition at 5 µM,[1],-17 ± 5.1%
same,inhibition at 10 µM,[1],17.4 ± 4.5%
same,inhibition at 50 µM,[1],25.1 ± 6.8%
same,inhibition at 100 µM,[1],31 ± 4.3%
same,inhibition at 100 µM,[2],27.6%
"O=c1cc(-c2ccccc2)oc2cccc(O)c12 [Primuletin, primuletin]",inhibitory effect on ColA (in words),,low impact on the enzyme activity
same,inhibition at 1 µM,[1],-9.3 ± 1.7%
same,inhibition at 5 µM,[1],-8.8 ± 2.1%
same,inhibition at 10 µM,[1],-0.7 ± 1.3%
same,inhibition at 50 µM,[1],8.5 ± 2.1%
same,inhibition at 100 µM,[1],25.4 ± 1.8%
same,inhibition at 100 µM,[2],33.1%
Cc1ccc(S(=O)(=O)NC(N)=O)cc1 [4-methylphenylsulfonylurea],inhibition at 100 µM,[2],19.6%
O=c1oc(-c2ccccc2)cc2ccccc12 [3-phenyl-1H-2-benzopyran-1-one],inhibition at 100 µM,[2],0.2%
"O=C(O)c1cc(O)c2c(c1)C(=O)c1cccc(O)c1C2=O [Rhein, rhein]",inhibitory effect on ColA (in words),,potent inhibitors of ColA
same,inhibition at 1 µM,[1],2.6 ± 0.6%
same,inhibition at 5 µM,[1],22.9 ± 2.7%
same,inhibition at 10 µM,[1],37.4 ± 3.2%
same,inhibition at 50 µM,[1],77.3 ± 2.2%
same,inhibition at 100 µM,[1],80.6 ± 1%
same,inhibition at 100 µM,[2],78.5%
COc1ccc2oc(-c3ccccc3)c(O)c(=O)c2c1 [6-methoxyflavonol],inhibition at 100 µM,[2],10.7%
O=C(O)C1CCCN1S(=O)(=O)c1cccc(C(F)(F)F)c1 (centres unmarked) [1-{[3-(trifluoromethyl)phenyl]sulfonyl}-2-pyrrolidinecarboxylic acid],inhibition at 100 µM,[2],0.7%
"C[C@H](CS)C(=O)N1CCC[C@H]1C(=O)O [captopril, reference compound]",inhibition at 100 µM,[2],5.2%
S-(acetamidomethyl)-L-cysteine,Inhibition (%) on ColA,[3],-15.2%
O=c1cc(-c2ccc(O)cc2)oc2cc(O)cc(O)c12 [apigenin],inhibition at 100 µM,[2],2.7%
Cc1cc(O)c2c(c1)C(=O)c1cccc(O)c1C2=O [chrysophanol],inhibition at 100 µM,[2],-11.1%
"Cc1cc(NC(=O)C2=C(O)c3ccccc3S(=O)(=O)N2C)no1 [isoxicam, reference compound]",inhibition at 100 µM,[2],-10.1%
c1ccc2c3c([nH]c2c1)CNCC3 [tetrahydronorharman],Inhibition (%) on ColA,[3],21.3%
"O=c1c(O)c(-c2ccccc2)oc2ccc(O)cc12 [3,6-dihydroxyflavone]",inhibitory effect on ColA (in words),,low inhibitory effects
same,inhibition at 100 µM,[2],2.7%
"O=c1cc(-c2ccc(O)cc2)oc2cccc(O)c12 [4′,5-Dihydroxyflavone, 4′,5-dihydroxyflavone]",IC50 (in words),,nanomolar range
same,inhibitory effect on ColA (in words),,potently inhibits its activity
same,Inhibition (%) on ColA,[4],Almost complete inhibition
same,inhibition at 1 µM,[1],-48 ± 3.6%
same,inhibition at 5 µM,[1],101.6 ± 0.6%
same,inhibition at 10 µM,[1],107.5 ± 1%
same,inhibition at 50 µM,[1],101 ± 1.9%
same,inhibition at 100 µM,[1],105 ± 2.9%
same,inhibition at 100 µM,[2],15%
NC(=O)NCCC[C@H](NC(=O)OCC1c2ccccc2-c2ccccc21)C(=O)O [Fmoc-L-citrulline],Inhibition (%) on ColA,[3],20.8%
O=c1c(-c2ccc(O)cc2)coc2cc(O)ccc12 [daidzein],inhibition at 100 µM,[2],5.8%
O=C(O)/C=C/c1ccc(O)c(O)c1 [caffeic acid],inhibitory effect on ColA (in words),,low effects
same,inhibition at 100 µM,[2],-3.8%
Cc1ccc(S(=O)(=O)N[C@@H](CCCNC(=N)N)C(=O)O)cc1 [nalpha-p-toluenesulfonyl-L-arginine],Inhibition (%) on ColA,[3],24.8%
"COc1cc(/C=C/C(=O)CC(=O)/C=C/c2ccc(O)c(OC)c2)ccc1O [Curcumin, curcumin]",inhibitory effect on ColA (in words),,very potent ColA inhibitor
same,Inhibition (%) on ColA,[4],Almost complete inhibition
same,inhibition at 1 µM,[1],-10 ± 3.9%
same,inhibition at 5 µM,[1],101.8 ± 0.6%
same,inhibition at 10 µM,[1],102.5 ± 0.8%
same,inhibition at 50 µM,[1],101.5 ± 0.4%
same,inhibition at 100 µM,[1],101.8 ± 0.7%
same,inhibition at 100 µM,[2],102%
"Nc1ccc2c(c1N)C(=O)c1ccccc1C2=O [1,2-diaminoanthraquinone]",inhibition at 100 µM,[2],4.3%
O=C(O)c1cc(O)c(O)c(O)c1 [gallic acid],inhibition at 100 µM,[2],-21.4%
"O=C1c2ccccc2C(=O)c2c(O)ccc(O)c21 [1,4-dihydroxyanthraquinone]",inhibition at 100 µM,[2],3.2%
"COc1ccc(-c2coc3cc(O)cc(O)c3c2=O)cc1 [Biochanin A, biochanin A]",inhibitory effect on ColA (in words),,potent inhibitory effect
same,Inhibition (%) on ColA,"50 µM, mean ± SD of three replications",Almost complete inhibition
same,inhibition at 1 µM,[1],-24.8 ± 5.3%
same,inhibition at 5 µM,[1],23 ± 2.6%
same,inhibition at 10 µM,[1],34.1 ± 2.2%
same,inhibition at 50 µM,[1],99.1 ± 1%
same,inhibition at 100 µM,[1],76.1 ± 0.7%
same,inhibition at 100 µM,[2],57.9%
O=c1cc(-c2ccccc2)oc2cc(O)cc(O)c12 [chrysin],inhibitory effect on ColA (in words),,low inhibitory effects
same,inhibition at 100 µM,[2],-3.4%
"Cl.NCCS [cysteamine hydrochloride, reference compound]",Inhibition (%) on ColA,[3],2.8%
"O=C(/C=C/c1ccccc1)c1ccccc1O [2′-Hydroxychalcone, 2′-hydroxychalcone]",inhibitory effect on ColA (in words),,potent inhibitory effect
same,Inhibition (%) on ColA,"100 µM, mean ± SD of three replications (five-dose assay)",Almost complete inhibition
same,inhibition at 1 µM,[1],-12.1 ± 0.2%
same,inhibition at 5 µM,[1],1.2 ± 0.9%
same,inhibition at 10 µM,[1],6.5 ± 1.3%
same,inhibition at 50 µM,[1],21.8 ± 1.2%
same,inhibition at 100 µM,[1],97.3 ± 1.3%
same,inhibition at 100 µM,[2],87.8%
"CC(=O)N[C@@H](CS)C(=O)O [acetylcysteine, reference compound]",inhibition at 100 µM,[2],3.4%
CC(NS(=O)(=O)c1cccc(Cl)c1)C(=O)O (racemic) [N-(3-chlorophenylsulfonyl)-DL-alanine],inhibition at 100 µM,[2],-19.2%
"CC1(C)[C@H](C(=O)O)N2C(=O)C[C@H]2S1(=O)=O [sulbactam, reference compound]",inhibition at 100 µM,[2],-10.7%
